Reference: US12617783B2, “Heterocyclic GLP-1R agonists” (BIOMEA FUSION, INC., priority 2024, dated 2026)

Target: T1, human GLP-1R (Homo sapiens, UniProt P43220)
T1 construct: host or cells: HEK293
Test: GLP-1R cAMP assay (Example B1b, HTRF, 30 min at 37°)
Format: cell-based
Conditions: cAMP accumulation in HEK293 expressing human GLP-1R, no BETP, 30 min at 37° (Method B1b), Table 1
Procedure: Assay was carried out with HEK293 expressing human GLP-1R using HTRF assay, developed by Wuxi Apptec. The method is a competitive assay between native cAMP produced by the cells and exogenous cAMP labeled with a proprietary dye d2. The tracer binding is visualized by a mAb anti-cAMP labeled with Cryptate. The signal (i.e. energy transfer) is inversely proportional to the concentration of CAMP in either standard or experimental sample. Compounds were tested in the absence of BETP. Ten microliter of cell suspension in assay buffer (5 mM HEPES, 500 μM IBMX, 0.1% BSA) were added to each well (1,000 cells per well) in a low volume 384-well plate for the assay. Serially diluted compounds were added in 100 nL volume to duplicate wells, by Labcyte Echo. GLP-1 (7-37) was used as positive control. Assay plate was incubated for 30 minutes at 37°. Stock of cAMP Detection Solution was prepared by mixing 38 parts of cAMP lysis buffer, 1 part of cAMP-D2, 1 part of anti-cAMP cryptate reagent (Cisbio #62AM4PEJ). Ten microliter of the cAMP Detection Solution was added to each well, and the assay plate was incubated for 1 hour at room temperature in the dark. Plates were read on Envision plate reader. The data were analyzed by ScreenUltra in Dotmatics, with % activation expressed using following formula: (Signal ratio […]*10000−negative control)/(postive control−negative control)*100. Dose response curves were plotted and EC50 values calculated by non-linear regression using 4-parameter fit. The potency (EC50) values for cAMP accumulation in HEK293 cells are reported in the Table 1 below (for compounds ID 610-708).

T1 sequence (P43220 24-463): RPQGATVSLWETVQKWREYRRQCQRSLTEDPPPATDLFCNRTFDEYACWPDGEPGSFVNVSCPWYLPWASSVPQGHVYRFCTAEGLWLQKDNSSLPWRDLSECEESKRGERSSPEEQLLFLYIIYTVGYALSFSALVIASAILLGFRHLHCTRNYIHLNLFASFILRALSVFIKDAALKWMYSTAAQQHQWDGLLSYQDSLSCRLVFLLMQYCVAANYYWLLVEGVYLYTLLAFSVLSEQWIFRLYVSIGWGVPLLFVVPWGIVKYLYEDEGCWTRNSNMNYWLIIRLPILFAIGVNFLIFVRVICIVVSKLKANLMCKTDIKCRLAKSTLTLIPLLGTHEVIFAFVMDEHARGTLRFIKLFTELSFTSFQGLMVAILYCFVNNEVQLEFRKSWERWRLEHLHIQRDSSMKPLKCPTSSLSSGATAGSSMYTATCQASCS

Row | SMILES | EC50
1 | Cc1cc(-n2nc3c(c2-n2ccn(-c4ccc5c(cnn5C5CC5)c4F)c2=O)[C@@H]2COC[C@H](C3)N2C(=O)c2cc3cc([C@H]4CCOC(C)(C)C4)ccc3n2[C@@]2(c3noc(=O)[nH]3)C[C@@H]2C)cc(C)c1F [Compound 617, 3-((1S,2S)-1-(2-((4R,8S)-3-(3-(1-cyclopropyl-4-fluoro-1H-indazol-5-yl)-2-oxo-2,3-dihydro-1H-imidazol-1-yl)-2-(4-fluoro-3,5-dimethylphenyl)-2,4,5,7,8,9-hexahydro-4,8-epiminooxocino [5,4-c]pyrazole-10-carbonyl)-5-((S)-2,2-dimethyltetrahydro-2H-pyran-4-yl)-1H-indol-1-yl)-2-methylcyclopropyl)-1,2,4-oxadiazol-5 (4H)-one] | 0.0025 µM
2 | Cc1cc(-n2nc3c(c2-n2ccn(-c4ccc5c(cnn5C)c4F)c2=O)[C@@H]2CC[C@H](C3)N2C(=O)c2cc3cc(C4CCOC(C)(C)C4)cc(F)c3n2[C@@]2(c3noc(=O)[nH]3)C[C@@H]2C)cc(C)c1F (stereo partly drawn) [Compound 618, 3-[(1S,2S)-1-[5-(2,2-dimethyltetrahydropyran-4-yl)-7-fluoro-2-[(1S,8R)-4-(4-fluoro-3,5-dimethyl-phenyl)-3-[3-(4-fluoro-1-methyl-indazol-5-yl)-2-oxo-imidazol-1-yl]-4,5,11-triazatricyclo[6.2.1.02,6]undeca-2,5-diene-11-carbonyl]indol-1-yl]-2-methyl-cyclopropyl]-4H-1,2,4-oxadiazol-5-one] | 0.0296 µM
3 | Cc1cc(-n2nc3c(c2-n2ccn(-c4ccc5c(cnn5C)c4F)c2=O)[C@@H]2COC[C@H](C3)N2C(=O)c2cc3cc(C4CCOC(C)(C)C4)cc(F)c3n2[C@@]2(c3noc(=O)[nH]3)C[C@@H]2C)cc(C)c1F (stereo partly drawn) [Compound 619, 3-((1S,2S)-1-(5-(2,2-dimethyltetrahydro-2H-pyran-4-yl)-7-fluoro-2-((4R,8S)-3-(3-(4-fluoro-1-methyl-1H-indazol-5-yl)-2-oxo-2,3-dihydro-1H-imidazol-1-yl)-2-(4-fluoro-3,5-dimethylphenyl)-2,4,5,7,8,9-hexahydro-4,8-epiminooxocino [5,4-c]pyrazole-10-carbonyl)-1H-indol-1-yl)-2-methylcyclopropyl)-1,2,4-oxadiazol-5(4H)-one] | 0.0054 µM
4 | Cc1cc(-n2nc3c(c2-n2ccn(-c4ccc5c(cnn5C)c4F)c2=O)[C@@H]2CCC[C@H](C3)N2C(=O)c2cc3cc([C@@H]4CCOC(C)(C)C4)cc(F)c3n2[C@@]2(c3noc(=O)[nH]3)C[C@@H]2C)cc(C)c1F [Compound 701, 3-((1S,2S)-1-(5-((R)-2,2-dimethyltetrahydro-2H-pyran-4-yl)-7-fluoro-2-((4S,8R)-3-(3-(4-fluoro-1-methyl-1H-indazol-5-yl)-2-oxo-2,3-dihydro-1H-imidazol-1-yl)-2-(4-fluoro-3,5-dimethylphenyl)-4,5,6,7,8,9-hexahydro-2H-4,8-epiminocycloocta [c]pyrazole-10-carbonyl)-1H-indol-1-yl)-2-methylcyclopropyl)-1,2,4-oxadiazol-5 (4H)-one] | > 0.1 µM
5 | Cc1cc(-c2nn3c(c2-n2ccn(-c4ccc5c(cnn5C)c4F)c2=O)[C@@H](C)N(C(=O)c2cc4cc([C@H]5CCOC(C)(C)C5)ccc4n2[C@@]2(c4noc(=O)[nH]4)C[C@@H]2C)CCC3)cc(C)c1F [Compound 702, 3-((1S,2S)-1-(5-((S)-2,2-dimethyltetrahydro-2H-pyran-4-yl)-2-((R)-3-(3-(4-fluoro-1-methyl-1H-indazol-5-yl)-2-oxo-2,3-dihydro-1H-imidazol-1-yl)-2-(4-fluoro-3,5-dimethylphenyl)-4-methyl-5,6,7,8-tetrahydro-4H-pyrazolo[1,5-a][1,4]diazepine-5-carbonyl)-1H-indol-1-yl)-2-methylcyclopropyl)-1,2,4-oxadiazol-5 (4H)-one] | > 0.1 µM
6 | Cc1cc(-c2nn3c(c2-n2ccn(-c4ccc5c(cnn5C)c4F)c2=O)[C@H](C)N(C(=O)c2cc4cc([C@H]5CCOC(C)(C)C5)ccc4n2[C@@]2(c4noc(=O)[nH]4)C[C@@H]2C)CCC3)cc(C)c1F [Compound 703, 3-((1S,2S)-1-(5-((S)-2,2-dimethyltetrahydro-2H-pyran-4-yl)-2-((S)-3-(3-(4-fluoro-1-methyl-1H-indazol-5-yl)-2-oxo-2,3-dihydro-1H-imidazol-1-yl)-2-(4-fluoro-3,5-dimethylphenyl)-4-methyl-5,6,7,8-tetrahydro-4H-pyrazolo[1,5-a][1,4]diazepine-5-carbonyl)-1H-indol-1-yl)-2-methylcyclopropyl)-1,2,4-oxadiazol-5 (4H)-one] | 0.0024 µM
7 | Cc1cc(-n2nc3c(c2-n2ccn(-c4ccc5c(cnn5C)c4F)c2=O)[C@@H]2COC[C@H](C3)N2C(=O)c2cc3cc([C@H]4CCOC(C)(C)C4)cc(F)c3n2[C@@]2(c3noc(=O)[nH]3)C[C@@H]2C)cc(C)c1F [Compound 705, 3-((1S,2S)-1-(5-((S)-2,2-dimethyltetrahydro-2H-pyran-4-yl)-7-fluoro-2-((4R,8S)-3-(3-(4-fluoro-1-methyl-1H-indazol-5-yl)-2-oxo-2,3-dihydro-1H-imidazol-1-yl)-2-(4-fluoro-3,5-dimethylphenyl)-2,4,5,7,8,9-hexahydro-4,8-epiminooxocino [5,4-c]pyrazole-10-carbonyl)-1H-indol-1-yl)-2-methylcyclopropyl)-1,2,4-oxadiazol-5(4H)-one] | 0.0024 µM
8 | Cc1cc(-n2nc3c(c2-n2ccn(-c4ccc5c(cnn5C)c4F)c2=O)[C@@H]2COC[C@H](C3)N2C(=O)c2cc3cc([C@@H]4CCOC(C)(C)C4)cc(F)c3n2[C@@]2(c3noc(=O)[nH]3)C[C@@H]2C)cc(C)c1F [Compound 706, 3-((1S,2S)-1-(5-((R)-2,2-dimethyltetrahydro-2H-pyran-4-yl)-7-fluoro-2-((4R,8S)-3-(3-(4-fluoro-1-methyl-1H-indazol-5-yl)-2-oxo-2,3-dihydro-1H-imidazol-1-yl)-2-(4-fluoro-3,5-dimethylphenyl)-2,4,5,7,8,9-hexahydro-4,8-epiminooxocino [5,4-c]pyrazole-10-carbonyl)-1H-indol-1-yl)-2-methylcyclopropyl)-1,2,4-oxadiazol-5 (4H)-one] | 0.059 µM
9 | Cc1cc(-n2nc3c(c2-n2ccn(-c4ccc5c(cnn5C)c4F)c2=O)[C@@H]2CCC[C@H](C3)N2C(=O)c2cc3cc([C@H]4CCOC(C)(C)C4)cc(F)c3n2[C@@]2(c3noc(=O)[nH]3)C[C@@H]2C)cc(C)c1F [Compound 707, 3-((1S,2S)-1-(5-((S)-2,2-dimethyltetrahydro-2H-pyran-4-yl)-7-fluoro-2-((4S,8R)-3-(3-(4-fluoro-1-methyl-1H-indazol-5-yl)-2-oxo-2,3-dihydro-1H-imidazol-1-yl)-2-(4-fluoro-3,5-dimethylphenyl)-4,5,6,7,8,9-hexahydro-2H-4,8-epiminocycloocta [c]pyrazole-10-carbonyl)-1H-indol-1-yl)-2-methylcyclopropyl)-1,2,4-oxadiazol-5 (4H)-one] | 0.0025 µM
10 | Cc1cc(-n2nc3c(c2-n2ccn(-c4ccc5c(cnn5C)c4F)c2=O)[C@@H]2CC[C@H](C3)N2C(=O)c2c(F)c3cc(C4CCOC(C)(C)C4)ccc3n2[C@@]2(c3noc(=O)[nH]3)C[C@@H]2C)cc(C)c1F (stereo partly drawn) [Compound 708, 3-[(1S,2S)-1-[5-(2,2-dimethyltetrahydropyran-4-yl)-3-fluoro-2-[(1S,8R)-4-(4-fluoro-3,5-dimethyl-phenyl)-3-[3-(4-fluoro-1-methyl-indazol-5-yl)-2-oxo-imidazol-1-yl]-4,5,11-triazatricyclo[6.2.1.02,6]undeca-2,5-diene-11-carbonyl]indol-1-yl]-2-methyl-cyclopropyl]-4H-1,2,4-oxadiazol-5-one] | 0.0085 µM
11 | Cc1cc(-n2nc3c(c2-n2ccn(-c4ccc5c(c4)N(C)C(=O)C5=O)c2=O)[C@@H]2CCC[C@H](C3)N2C(=O)c2cc3cc([C@H]4CCOC(C)(C)C4)ccc3n2[C@@]2(c3noc(=O)[nH]3)C[C@@H]2C)cc(C)c1F [Compound 710, 6-(3-((4S,8R)-10-(5-((S)-2,2-dimethyltetrahydro-2H-pyran-4-yl)-1-((1S,2S)-2-methyl-1-(5-oxo-4,5-dihydro-1,2,4-oxadiazol-3-yl)cyclopropyl)-1H-indole-2-carbonyl)-2-(4-fluoro-3,5-dimethylphenyl)-4,5,6,7,8,9-hexahydro-2H-4,8-epiminocycloocta [c]pyrazol-3-yl)-2-oxo-2,3-dihydro-1H-imidazol-1-yl)-1-methylindoline-2,3-dione] | 0.004 µM
12 | Cc1cc(-n2nc3c(c2-n2ccn(-c4ccc5c(cnn5C)c4F)c2=O)[C@@H]2CC[C@H](C3)N2C(=O)c2cc3cc([C@H]4CCOC(C)(C)C4)cc(F)c3n2[C@@]2(c3noc(=O)[nH]3)C[C@@H]2C)cc(C)c1F [Compound 711, 3-[(1S,2S)-1-[5-[(4S)-2,2-dimethyltetrahydropyran-4-yl]-7-fluoro-2-[(1S,8R)-4-(4-fluoro-3,5-dimethyl-phenyl)-3-[3-(4-fluoro-1-methyl-indazol-5-yl)-2-oxo-imidazol-1-yl]-4,5,11-triazatricyclo[6.2.1.02,6]undeca-2,5-diene-11-carbonyl]indol-1-yl]-2-methyl-cyclopropyl]-4H-1,2,4-oxadiazol-5-one] | 0.006 µM
